We go through two compounds from BindingDB's records for doi:10.1016/j.bmcl.2004.04.105 (Institut Henri Beaufour, 2004).

What is called pIC50 is the IC50 on a negative log10 scale, so that one unit is a factor of ten. Low values mean a high IC50, high ones a low IC50.

The structures appear in SMILES notation. pIC50: −log10 of the molar value.

The nature of test [1]: Inhibitory activity against on calpain in C6 glial cells.
The nature of test [2]: Inhibitory activity against on calpain 1 in C6 glial cells.

The compound `CC(C)C[C@H](NC(=O)c1ccc2c(c1)Nc1ccccc1S2)C(=O)N[C@H]1CCOC1O` (some centres not stated) gave a pIC50 in test [1] of 4.63.

In test [2], `CC(=O)OC1OCC[C@@H]1NC(=O)[C@H](CC(C)C)NC(=O)c1ccc2c(c1)Nc1ccccc1S2` (some centres not stated) had a pIC50 of 4.87.
